The values below come from ChEMBL document CHEMBL2390873, “Rational design, synthesis and QSAR study of vasorelaxant active 3-pyridinecarbonitriles incorporating 1H-benzimidazol-2-yl function” (Eur J Med Chem, 2013).

The test system of this assay is Aorta. In words: Vasorelaxant activity in Wister rat isolated thoracic aortic rings assessed as reduction of norepinephrine hydrochloride-induced contraction. It counts as functional, tissue-based.

What is called IC50 is the point on the concentration scale where inhibition reaches its midpoint. In the case of `COc1ccc(-c2cc(-c3nc4ccccc4n3C)nc(OC)c2C#N)cc1`, the IC50 turned out to be 210 µM.

As for `COc1nc(-c2nc3ccccc3n2C)cc(-c2cccs2)c1C#N`, the IC50 came out at 312 µM. As for `COc1nc(-c2nc3ccccc3n2C)cc(-c2ccc(Cl)cc2)c1C#N`, the figure is 145 µM; as for `COc1nc(-c2nc3ccccc3n2C)cc(-c2ccc(C)o2)c1C#N`, 283 µM.

As to `CCOc1nc(-c2nc3ccccc3n2C)cc(-c2cccs2)c1C#N`, the IC50 came out at 249 µM. As for `COc1nc(-c2nc3ccccc3n2C)cc(-c2ccc(Cl)cc2Cl)c1C#N`, the figure is 214 µM; as for `CCOc1nc(-c2nc3ccccc3n2C)cc(-c2ccc(OC)cc2)c1C#N`, 436 µM.

On to `CCOc1nc(-c2nc3ccccc3n2C)cc(-c2ccc(Cl)cc2Cl)c1C#N`, for which the IC50 is 305 µM. For `COc1nc(-c2nc3ccccc3[nH]2)cc(-c2ccc(Cl)cc2)c1C#N` the value was 286 µM.

As for `CCOc1nc(-c2nc3ccccc3n2C)cc(-c2ccc(C)cc2)c1C#N`, the IC50 was 400 µM. For `CCOc1nc(-c2nc3ccccc3n2C)cc(-c2ccc(Cl)cc2)c1C#N` the value was 293 µM; for `COc1nc(-c2nc3ccccc3n2C)cc(-c2ccccc2)c1C#N`, 300 µM. For `CCOc1nc(-c2nc3ccccc3n2C)cc(-c2ccc(C)o2)c1C#N` the value was 336 µM; for `CCOc1nc(-c2nc3ccccc3n2C)cc(-c2ccccc2)c1C#N`, 364 µM. For `CCOc1nc(-c2nc3ccccc3n2C)cc(-c2ccc(F)cc2)c1C#N` the value was 362 µM; for `COc1nc(-c2nc3ccccc3n2C)cc(-c2ccc(C)cc2)c1C#N`, 295 µM. As to `COc1nc(-c2nc3ccccc3n2C)cc(-c2ccc(F)cc2)c1C#N`, the IC50 came to 343 µM.

Regarding `COc1nc(-c2nc3ccccc3[nH]2)cc(-c2ccc(C)o2)c1C#N`, the IC50 came out at 202 µM.
